In patent US20250268903A1, “RXFP1 AGONISTS” (BRISTOL-MYERS SQUIBB COMPANY, priority 2021, published 2025):

Target: T1, human RXFP1 (Homo sapiens, UniProt Q9HBX9)
T1 construct: expressed in transfected cells
T1 sequence (Q9HBX9 1-757): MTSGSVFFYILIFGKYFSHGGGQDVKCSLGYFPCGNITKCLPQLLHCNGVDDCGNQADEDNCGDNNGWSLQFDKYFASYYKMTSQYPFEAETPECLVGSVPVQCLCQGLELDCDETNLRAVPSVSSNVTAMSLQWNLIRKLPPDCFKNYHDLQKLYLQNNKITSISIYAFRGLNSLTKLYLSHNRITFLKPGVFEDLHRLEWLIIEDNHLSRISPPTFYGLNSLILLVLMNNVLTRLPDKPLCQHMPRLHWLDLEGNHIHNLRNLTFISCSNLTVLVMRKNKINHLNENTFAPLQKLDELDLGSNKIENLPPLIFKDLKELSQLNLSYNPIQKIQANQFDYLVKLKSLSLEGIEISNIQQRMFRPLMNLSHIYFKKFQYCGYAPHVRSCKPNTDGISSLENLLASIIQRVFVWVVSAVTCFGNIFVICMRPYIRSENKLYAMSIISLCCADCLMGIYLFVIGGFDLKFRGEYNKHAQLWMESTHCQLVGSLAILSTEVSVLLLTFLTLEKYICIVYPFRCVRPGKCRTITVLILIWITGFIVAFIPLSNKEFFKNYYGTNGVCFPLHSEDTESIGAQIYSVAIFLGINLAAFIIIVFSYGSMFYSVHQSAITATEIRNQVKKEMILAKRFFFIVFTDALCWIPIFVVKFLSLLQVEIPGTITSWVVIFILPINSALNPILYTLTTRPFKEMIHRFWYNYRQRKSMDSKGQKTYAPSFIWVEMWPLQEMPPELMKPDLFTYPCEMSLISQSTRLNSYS
Assay: hRXFP1 HEK293 cAMP assay (HTRF)
Assay type: cell-based
Details: HEK293 cells stably expressing human RXFP1, 30 min at room temperature
Method in brief: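 HEK293 cells stably expressing human RXFP1 were suspended in HBSS (Ca/Mg) with 20 mM HEPES, 0.05% BSA and 0.5 mM IBMX, then treated with compounds (0.010 nM–50 μM, 2% DMSO final) for 30 min at room temperature. Intracellular cAMP was measured by HTRF, and potency was derived from 4-parameter logistic fits.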

| EC50 [nM] | SMILES |
| --- | --- |
| 427 | COc1ccc(Cc2ccc(F)cc2)cc1C(=O)N[C@H]1[C@@H](C(=O)Nc2ccc(F)c(C(F)(F)F)c2)[C@H]2CC[C@@H]1/C2=C\C(F)(F)F [Example 155, (1R,2S,3R,4R,Z)—N-(4-fluoro-3-(trifluoromethyl)phenyl)-3-(5-(4-fluorobenzyl)-2-methoxybenzamido)-7-(2,2,2-trifluoroethylidene) bicyclo[2.2.1]heptane-2-carboxamide] |
| 9 | COc1ccc(CCC(C)(C)O)cc1C(=O)NC1C2CCC(/C2=C/C(C)C)[C@@H]1C(=O)Nc1ccc(F)c(C(F)(F)F)c1 (stereo partly drawn) [Example 158, (7Z)-N-[4-fluoro-3-(trifluoromethyl)phe-nyl]-3-[5-(3-hydroxy-3-methylbutyl)-2-methoxybenzamido]-7-(2-methylpropylidene)bi-cyclo[2.2.1]heptane-2-carboxamide] |
| 21.6 | COc1ccc(COC2=NOC3CC(O)CC23)cc1C(=O)N[C@H]1[C@@H](C(=O)Nc2ccc(F)c(C(F)(F)F)c2)[C@H]2CC[C@@H]1/C2=C\C1CC1 (stereo partly drawn) [Example 301, (1R,2S,3R,4R,7Z)-7-(cyclopropylmethylidene)-N-[4-fluoro-3-(trifluoromethyl)phenyl]-3-{5-[({5-hydroxy-3aH,4H,5H,6H,6aH cyclopenta[d][1,2]oxazol-3-yl}oxy)methyl]-2-methoxybenzamido} bicyclo[2.2.1] heptane-2-carboxamide] |
| 926 | COc1ccc(C2CCCC2)cc1C(=O)N[C@@H]1C2CCC(/C2=C/C(F)(F)F)[C@@H]1C(=O)Nc1ccc(F)c(C(F)(F)F)c1 (stereo partly drawn) [Example 47, (2S,3R,7Z)-3-(5-cyclopentyl-2-methoxybenzamido)-N-[4-fluoro-3-(trifluoroemthyl)phe-nyl]-7-(2,2,2-trifluoroethylidene) bicyclo[2.2.1]heptane-2-carboxamide] |
| 66.2 | COc1ccc(/C=C/C(=O)N2CC(O)C2)cc1C(=O)N[C@H]1[C@@H](C(=O)Nc2ccc(F)c(C(F)(F)F)c2)[C@H]2CC[C@@H]1/C2=C\C(F)(F)F [Example 314] |
| 27.2 | COc1ccc(C(=O)N2CCC(S(C)(=O)=O)CC2)cc1C(=O)N[C@H]1[C@@H](C(=O)Nc2ccc(F)c(C(F)(F)F)c2)[C@H]2CC[C@@H]1/C2=C\C1CC1 [Example 247, (1R,2S,3R,4R,7Z)-7-(cyclopropylmethyl-idene)-N-[4-fluoro-3-(trifluoromethyl)phenyl]-3-[5-(4-methanesulfonyl-piperidine-1-carbonyl)-2-methoxybenzamido] bicyclo[2.2.1] heptane-2-carboxamide] |
| 397 | COc1ccc(CCCO)cc1C(=O)NC1C2CCC(/C2=C/C2CCCOC2)[C@@H]1C(=O)Nc1ccc(F)c(C(F)(F)F)c1 (single isomer, unassigned) [Example 171, (7Z)-N-[4-fluoro-3-(trifluoromethyl)phe-nyl]-3-[5-(3-hydroxypropyl)-2-methoxybenzamido]-7-[(oxan-3-yl)methylidene]bicy-clo[2.2.1]heptane-2-carboxamide] |
| 39 | COc1ccc(CCC(C)(C)O)cc1C(=O)NC1C2CCC(/C2=C/C2CCCOC2)[C@@H]1C(=O)Nc1ccc(F)c(C(F)(F)F)c1 (single isomer, unassigned) [Example 172, (7Z)-N-[4-fluoro-3-(trifluoromethyl)phe-nyl]-3-[5-(3-hydroxy-3-methylbutyl)-2-methoxybenzamido]-7-[(oxan-3-yl)methylidene]bicy-clo[2.2.1]heptane-2-carboxamide] |
| 13 | COc1ccc(/C=C/C(=O)N2CCC(O)CC2)cc1C(=O)N[C@@H]1C2CCC(/C2=C/C(F)(F)F)[C@@H]1C(=O)Nc1ccc(F)c(C(F)(F)F)c1 (stereo partly drawn) [Example 125, (2S,3R,7Z)-N-[4-fluoro-3-(trifluoromethyl)phe-nyl]-3-{5-[(1E)-3-(4-hydroxypiperidin-1-yl)-3-oxoprop-1-en-1-yl]-2-methoxybenzamido}-7-(2,2,2-trifluoroethylidene)bi-cyclo[2.2.1]heptane-2-carboxamide] |
| 1920 | COc1ccc(S(=O)(=O)NC2CCOC2)cc1C(=O)NC1C2CCC(/C2=C/C(F)(F)F)[C@@H]1C(=O)Nc1ccc(F)c(C(F)(F)F)c1 (stereo partly drawn) [Example 198, (2S,3R,7Z)-N-[4-fluoro-3-(trifluoromethyl)phe-nyl]-3-{2-methoxy-5-[(oxolan-3-yl)sulfamoyl]benza-mido}-7-(2,2,2-trifluoroethylidene)bi-cyclo[2.2.1]heptane-2-carboxamide] |
| 644 | COc1ccc(/C=C/C(=O)NC2CCC2)cc1C(=O)NC1C2CCC(/C2=C/C(F)(F)F)[C@@H]1C(=O)Nc1ccc(F)c(C(F)(F)F)c1 (stereo partly drawn) [Example 135, (2S,3R,7Z)-3-{5-[(1E)-2-(cyclobutylcarbamoyl)eth-1-en-1-yl]-2-methoxybenzamido}-N-[4-fluoro-3-(trifluoromethyl)phe-nyl]-7-(2,2,2-trifluoroethylidene)bi-cyclo[2.2.1]heptane-2-carboxamide] |
| 1010 | COc1ccc(C(O)C(F)(F)F)cc1C(=O)NC1C2CCC(/C2=C/C(F)(F)F)[C@@H]1C(=O)Nc1ccc(F)c(C(F)(F)F)c1 (single isomer, unassigned) [Example 5] |
| 589 | COc1ccc(S(=O)(=O)N2CCN[C@H](CO)C2)cc1C(=O)N[C@H]1[C@@H](C(=O)Nc2ccc(F)c(C(F)(F)F)c2)[C@H]2CC[C@@H]1/C2=C\C(F)(F)F [Example 212, (1R,2S,3R,4R,7Z)-N-[4-fluoro-3-(trifluoromethyl)phenyl]-3-(5-{[(3S)-3-(hydroxymethyl)piperazin-1-yl]sulfonyl}-2-methoxybenzamido)-7-(2,2,2-trifluoroethylidene) bicyclo[2.2.1] heptane-2-carboxamide] |
| 11.9 | COc1ccc(C(=O)N2CC3(C2)CS(=O)(=O)C3)cc1C(=O)N[C@H]1[C@@H](C(=O)Nc2ccc(F)c(C(F)(F)F)c2)[C@H]2CC[C@@H]1/C2=C\C1CC1 [Example 243, (1R,2S,3R,4R,7Z)-7-(cyclopropyl-methylidene)-3-(5-{2,2-dioxo-2λ^6-thia-6-azaspiro[3.3]heptane-6-carbonyl}-2-methoxybenzamido)-N-[4-fluoro-3-(trifluoromethyl)phenyl]bicyclo[2.2.1] heptane-2-carboxamide] |
| 1160 | COCC/C=C1\C2CCC1[C@H](C(=O)Nc1ccc(F)c(C(F)(F)F)c1)C2NC(=O)c1cc(CCCO)ccc1OC (stereo partly drawn) [Example 161, (7Z)-N-[4-fluoro-3-(trifluoromethyl)phe-nyl]-3-[5-(3-hydroxypropyl)-2-methoxybenzamido]-7-(3-methoxypropylidene) bicyclo[2.2.1]heptane-2-carboxamide] |
| 815 | O=C(N[C@@H]1C2CCC(/C2=C/C(F)(F)F)[C@@H]1C(=O)Nc1ccc(F)c(C(F)(F)F)c1)c1cc(CCCO)ccc1OCCO (stereo partly drawn) [Example 107, (2S,3R,7Z)-N-[4-fluoro-3-(trifluoromethyl)phe-nyl]-3-[2-(2-hydroxyethoxy)-5-(3-hydroxypropyl)benz-amido]-7-(2,2,2-trifluoroethylidene)bi-cyclo[2.2.1]heptane-2-carboxamide] |
| 250 | COc1ccc(C2CC2CO)cc1C(=O)N[C@@H]1C2CCC(/C2=C/C(F)(F)F)[C@@H]1C(=O)Nc1ccc(F)c(C(F)(F)F)c1 (single isomer, unassigned) [Example 65] |
| 1240 | COc1ccc(C(O)C(F)(F)F)cc1C(=O)NC1C2CCC(/C2=C/C(F)(F)F)[C@@H]1C(=O)Nc1ccc(F)c(C(F)(F)F)c1 (single isomer, unassigned) [Example 6] |
| 2350 | COc1ccc(C2CCCC(NC(=O)C3CCOCC3)C2)cc1C(=O)N[C@@H]1C2CCC(/C2=C/C(F)(F)F)[C@@H]1C(=O)Nc1ccc(F)c(C(F)(F)F)c1 (single isomer, unassigned) [Example 51] |
| 829 | COc1ccc(CCC(=O)NCC(F)(F)F)cc1C(=O)NC1C2CCC(/C2=C/C(F)(F)F)[C@@H]1C(=O)Nc1ccc(F)c(C(F)(F)F)c1 (stereo partly drawn) [Example 141, (2S,3R,7Z)-N-[4-fluoro-3-(trifluoromethyl)phe-nyl]-3-(2-methoxy-5-{2-[(2,2,2-trifluoroethyl)carba-moyl]ethyl}benzami-do)-7-(2,2,2-trifluoroethylidene)bi-cyclo[2.2.1]heptane-2-carboxamide] |
| 11 | COc1ccc(CCCO)cc1C(=O)NC1C2CCC(/C2=C/C2CCCC2)[C@@H]1C(=O)Nc1ccc(F)c(C(F)(F)F)c1 (stereo partly drawn) [Example 167, (7Z)-7-(cyclopentylmethyli-dene)-N-[4-fluoro-3-(trifluoromethyl)phe-nyl]-3-[5-(3-hydroxypropyl)-2-methoxybenzamido] bicyclo[2.2.1]heptane-2-carboxamide] |
